Measured values from patent publication US12440457B2, “Methods of treating suicidality” (Seelos Therapeutics, Inc., priority 2020, dated 2025).

What was measured:
[1] = Pham et al. 2018; cited from earlier work
[2] = Leung and Baillie 1986; cited from earlier work
[3] = tested on: adults with major depressive disorder at imminent risk of suicide; assay: Phase 2 study, MADRS item 10 (suicidality); assay type: in vivo, human; settings: baseline 5
Text: The Montgomery-Asberg Depression Rating Scale (MADRS) is a diagnostic questionnaire that can be used to measure the severity of a depressive episode in a subject. In some embodiments, the MADRS can be used to measure suicidal ideation. […]

[4] = tested on: adults with major depressive disorder at imminent risk of suicide; assay: Phase 2 study, MADRS total score; assay type: in vivo, human
Text: The Montgomery-Asberg Depression Rating Scale (MADRS) is a diagnostic questionnaire that can be used to measure the severity of a depressive episode in a subject. In some embodiments, the MADRS can be used to measure suicidal ideation. For example, the MADRS includes 10 items directed to the following: 1) apparent sadness (e.g., representing despondency, gloom and despair that is more than just ordinary transient low spirits that is reflected in speech, facial expression, and posture); 2) reported sadness (e.g., representing reports of depressed mood, regardless of whether it is reflected in appearance or not and can include low spirits, despondency or the feeling of being beyond help and without hope); 3) inner tension (e.g., representing feelings of ill-defined discomfort, edginess, inner turmoil, mental tension mounting to either panic, dread or anguish); 4) reduced sleep (e.g., representing the experience of reduced duration or depth of sleep compared to the subject's own normal pattern when well); 5) reduced appetite (e.g., representing the feeling of a loss of appetite compared with when-well); 6) concentration difficulties (e.g., representing difficulties in collecting one's thoughts mounting to an incapacitating lack of concentration); 7) lassitude (e.g., representing difficulty in getting started or slowness in initiating and performing everyday activities); 8) inability to feel (e.g., representing the subjective experience of reduced interest in the surroundings, or activities that normally give pleasure, and the ability to react with adequate emotion to circumstances or people is reduced); 9) pessimistic thoughts (e.g., representing thoughts of guilt, inferiority, self-reproach, sinfulness, remorse and ruin); and 10) suicidal thoughts (e.g., representing the feeling that life is not worth living, that a natural death would be welcome, suicidal thoughts, and preparations for suicide). Each item is rated from 0 to 6, with 0 reflecting that the subject is not at all as described by the item and 6 reflecting that the subject is extremely like what is described by the item. […] As another example, for suicidal thoughts, a score of 0 can indicate that the subject enjoys life or takes it as it comes; a score of 2 can indicate that the subject is weary of life and may have fleeting suicidal thoughts; a score of 4 can indicate that the subject feels he or she would probably be better off dead (e.g., suicidal thoughts are common, and suicide is considered as a possible solution, but without specific plans or intention); and a score of 6 can indicate that the subject has explicit plans for suicide when there is an opportunity (e.g., the subject has made active preparations for suicide). […]

[5] = tested on: adults with major depressive disorder at imminent risk of suicide; assay: Phase 2 study, S-STS CMCM risk of suicide at this time; assay type: in vivo, human
Text: FIGS. 20A-20B are a table (FIG. 20A) and a graph (FIG. 20B) describing the STS CMCM (“risk of suicide at this time”) scores for Subject 1 and Subject 2 from Day 1 to Day 9 described in Example 3 of the study.
(§1) The S-STS CMCM (version 01/01/19) is a clinician-rated outcome measure which assesses SIB on a standard 22-item scale, as well as multiple patient and clinician-rated items. The first 16 items are rated on a Likert-type scale ranging from “not at all” (0) to “extremely” (4), where select scoring (i.e., 4 specific items are scored based on the highest score on 2 of those items) yields a total score ranging from 0 to 52. The final 6 items are used only when the patient misses a visit and is unable to complete the scale; if that missed visit is due to attempted or completed suicide, the possible maximum score is 100. The CMCM also yields 5 different single-item global assessments: 1) subject-rated likelihood of a suicide attempt; 2) subject-rated treatment needed; 3) clinician global severity of suicidal impulses, thoughts, and behaviors; 4) clinician judgment of suicide risk at this time and level of management needed for suicidality; and 5) clinician judgment of subject's likelihood of making a suicide attempt or of dying by suicide in the next 7 days.
(§2) The secondary endpoints will be the change from baseline at 24 hours, as well as at Day 16, in the following: • (1) S-STS total score • (2) MADRS total score at Day 16 (only) • (3) Clinical Global Impression (CGI) of Severity for SI/B (CGIS-SI/B) and Change in SI/B (CGIC-SI/B) • (4) Patient Global Impression (PGI) of Severity for SI/B (PGIS-SI/B) and Change in SI/B (PGIC-SI/B • (5) S-STS Clinician-Rated Global Severity of Suicidal Impulses, Thoughts, and Behaviors • (6) S-STS Clinician judgment of subject's risk of a suicide attempt or death by suicide at this time • (7) S-STS Clinician judgment of subject's likelihood (risk) of making a suicide attempt or of dying by suicide in the next 7 days • (8) S-STS Subject-rated global severity of suicidal impulses, thoughts, and behavior • (9) S-STS Subject-rated treatment needed score • (10) MADRS item 10 response rate (response ≤3) • (11) MADRS response (total score ≥50% reduction from baseline) • (12) MADRS remission (total score ≤12) Exploratory Endpoint:
(§3) This study is currently underway.

[6] = tested on: adults with major depressive disorder at imminent risk of suicide; assay: Phase 2 study, S-STS CMCM total score; assay type: in vivo, human
Text: The S-STS CMCM (version 01/01/19) is a clinician-rated outcome measure which assesses SIB on a standard 22-item scale, as well as multiple patient and clinician-rated items. The first 16 items are rated on a Likert-type scale ranging from “not at all” (0) to “extremely” (4), where select scoring (i.e., 4 specific items are scored based on the highest score on 2 of those items) yields a total score ranging from 0 to 52. The final 6 items are used only when the patient misses a visit and is unable to complete the scale; if that missed visit is due to attempted or completed suicide, the possible maximum score is 100. The CMCM also yields 5 different single-item global assessments: 1) subject-rated likelihood of a suicide attempt; 2) subject-rated treatment needed; 3) clinician global severity of suicidal impulses, thoughts, and behaviors; 4) clinician judgment of suicide risk at this time and level of management needed for suicidality; and 5) clinician judgment of subject's likelihood of making a suicide attempt or of dying by suicide in the next 7 days. […]

[7] = tested on: adults with major depressive disorder at imminent risk of suicide; assay: Phase 2 study, S-STS CMCM Risk of Suicide at Within the Next 7 Days; assay type: in vivo, human
Text: FIGS. 21A-21B are a table (FIG. 21A) and a graph (FIG. 21B) describing the STS CMCM (“risk of suicide at within the next 7 day”) scores for Subject 1 and Subject 2 from Day 1 to Day 9 described in Example 3 of the study.
as §1, §2, §3

[8] = tested on: adults with major depressive disorder at imminent risk of suicide; assay: Phase 2 study, overall preliminary outcome; assay type: in vivo, human; settings: two subjects, first eight days
Text: as §3

[9] = tested on: adults with major depressive disorder at imminent risk of suicide; assay: Phase 2 study, CADSS dissociation
[10] = Subject 2, 24 hours post-administration, baseline 7

NC1(c2ccccc2Cl)CCCC(O)C1=O (centres unmarked) [6-hydroxynorketamine]
antidepressant properties [1]: exhibit antidepressant properties

CNC1(c2ccccc2Cl)CCCCC1=O (racemic) [intranasal racemic ketamine, racemic ketamine]
movement during the anesthetic recovery phase [2]: increased movement
MADRS item 10 (suicidality) score (range 0-6) ([3]; Subject 1, 24 hours post-administration): 0
MADRS item 10 (suicidality) score (range 0-6) ([3]; second subject (not given), 24 hours post-administration): 0
MADRS total score ([4]; Subject 1, 24 hours post-administration, 90 mg IN plus SOC, baseline 35): 8
MADRS total score ([4]; Subject 2, 24 hours post-administration, 90 mg IN plus SOC, baseline 38): 15
MADRS total score ([4]; Subject 2, Day 8, after second dose on Day 4): 16
reduction of MADRS total score ([4]; both subjects, 24 hours post-administration): > 50%
S-STS CMCM score (range 0-9), risk of suicide at this time ([5]; Subject 1, 24 hours post-administration, baseline 7): 3
S-STS CMCM score (range 0-9), risk of suicide at this time ([5]; Subject 1, Day 9): 2
S-STS CMCM score (range 0-9), risk of suicide at this time [5, 10]: 3
S-STS CMCM score (range 0-9), risk of suicide at this time ([5]; Subject 2, Day 9): zero
S-STS CMCM score (range 0-9), risk of suicide at this time ([5]; both subjects, Day 8): 2
S-STS CMCM score (range 0-52) ([6]; Subject 1, 24 hours post-administration, baseline 18): zero
S-STS CMCM score (range 0-52) ([6]; Subject 2, 24 hours post-administration, baseline 22): 3
S-STS CMCM Risk of Suicide at Within the Next 7 Days score (range 1-10) ([7]; Subject 1, 24 hours post-administration, baseline 5): 2
S-STS CMCM Risk of Suicide at Within the Next 7 Days score (range 1-10) [7, 10]: 1
S-STS CMCM Risk of Suicide at Within the Next 7 Days score (range 1-10) ([7]; the scores, Day 4): 1
S-STS CMCM Risk of Suicide at Within the Next 7 Days score (range 1-10) ([7]; the scores, Day 8): 0
improvements in depression and suicidality, preliminary data [8]: rapid, significant, and sustained improvements in depression and suicidality
sedation or dissociation, preliminary data [8]: no meaningful sedation or dissociation
CADSS score (dissociation) ([9]; Subject 1, all time points, clinical threshold score ≥4): zero
CADSS score (dissociation) ([9]; Subject 2, 40 minutes post-administration, clinical threshold score ≥4): 2
CADSS score (dissociation) ([9]; Subject 2, 1 hour post-administration): zero
antidepressant properties [1]: exhibit antidepressant properties

NC1(c2ccccc2Cl)CCCCC1=O (centres unmarked) [norketamine]
movement during the anesthetic recovery phase [2]: increased movement
